Measurements: patent US20110318396A1, “DERMATOLOGICAL/COSMETIC COMPOSITIONS COMPRISING A RETINOID AND BENZOYL PEROXIDE” (Galderma Research & Development, priority 2006, published 2011)
Like-named read-outs stand apart in the source and are kept apart here.

Assays:
[1] = Chemical stability: assay of adapalene by internal calibration in HPLC; assay type: physicochemical; conditions: composition of Example 2 a); AT; T 3 months
Excerpt: Assay of the active by internal calibration in HPLC.
At the starting time (T0) the composition is considered to contain 100% of adapalene. Concentration of adapalene measured in % relative to T0: […]

[2] = in presence of the formulation based on benzoyl peroxide, cited from earlier work; for Retinoid degraded: calculated
[3] = in PEG 400 and ethanol; cited from earlier work
[4] = Chemical stability: assay of benzoyl peroxide by internal calibration in HPLC; assay type: physicochemical; conditions: composition of Example 2 a)
Excerpt: Benzoyl Peroxide: Assay of the active by internal calibration in HPLC. At the starting time (T0) the composition is considered to contain 100% of benzoyl peroxide. Concentration of benzoyl peroxide measured in % relative to T0: […]

[5] = cited from earlier work; for Degradation time: 40° C.

## COc1ccc(-c2ccc3cc(C(=O)O)ccc3c2)cc1C12CC3CC(CC(C3)C1)C2 [Adapalene, 6-(3-(1-adamantyl)-4-methoxyphenyl)-2-naphthoic acid]
[1]
  Concentration of adapalene measured in % relative to T0: 97.7%
[2]; over 24 hours
  Degradation of the retinoid: no degradation

## O=C(OOC(=O)c1ccccc1)c1ccccc1 [Benzoyl Peroxide, benzoyl peroxide]
[3]
  Solubility: particularly soluble
[4]; 40° C., T 1 month
  Concentration of benzoyl peroxide measured in % relative to T0: 96.3%
[4]; 40° C., T 2 months
  Concentration of benzoyl peroxide measured in % relative to T0: 81.6%
[4]; 40° C., T 3 months
  Concentration of benzoyl peroxide measured in % relative to T0: 88.7%
[4]; AT, T 0
  Concentration of benzoyl peroxide measured in % relative to T0: 99.2%
[4]; AT, T 3 months
  Concentration of benzoyl peroxide measured in % relative to T0: 94.8%
[5]; in solution in PEG 400 (0.5 mg/g)
  Degradation time: 1.4 days
[5]; in solution in ethanol
  Degradation time: 29 days
[5]; in solution in propylene glycol
  Degradation time: 53 days
[5]; in water and propylene glycol, kept for 90 days
  Degradation in suspension (dispersed form): not degraded

## CC1=C(/C=C/C(C)=C/C=C/C(C)=C/C(=O)O)C(C)(C)CCC1 [tretinoin]
[2]; in 2 hours
  Retinoid degraded: 50%
[2]; in 24 hours
  Retinoid degraded: 95%
